# Data: patent US20250092030A1, “ENHANCERS OF PARTICULATE GUANYLYL CYCLASE RECEPTOR A” (Mayo Foundation for Medical Education and Research, priority 2023, published 2025)
# “And” between values parts separate entries of the source, which are not always exact repeats. Identical values can stand only once.
# Target: T1, particulate guanylyl cyclase receptor A (pGC-A) (Homo sapiens, UniProt P16066)
# T1 construct: expressed in transfected cells; host or cells: HEK293
# T1 sequence (P16066 33-1061): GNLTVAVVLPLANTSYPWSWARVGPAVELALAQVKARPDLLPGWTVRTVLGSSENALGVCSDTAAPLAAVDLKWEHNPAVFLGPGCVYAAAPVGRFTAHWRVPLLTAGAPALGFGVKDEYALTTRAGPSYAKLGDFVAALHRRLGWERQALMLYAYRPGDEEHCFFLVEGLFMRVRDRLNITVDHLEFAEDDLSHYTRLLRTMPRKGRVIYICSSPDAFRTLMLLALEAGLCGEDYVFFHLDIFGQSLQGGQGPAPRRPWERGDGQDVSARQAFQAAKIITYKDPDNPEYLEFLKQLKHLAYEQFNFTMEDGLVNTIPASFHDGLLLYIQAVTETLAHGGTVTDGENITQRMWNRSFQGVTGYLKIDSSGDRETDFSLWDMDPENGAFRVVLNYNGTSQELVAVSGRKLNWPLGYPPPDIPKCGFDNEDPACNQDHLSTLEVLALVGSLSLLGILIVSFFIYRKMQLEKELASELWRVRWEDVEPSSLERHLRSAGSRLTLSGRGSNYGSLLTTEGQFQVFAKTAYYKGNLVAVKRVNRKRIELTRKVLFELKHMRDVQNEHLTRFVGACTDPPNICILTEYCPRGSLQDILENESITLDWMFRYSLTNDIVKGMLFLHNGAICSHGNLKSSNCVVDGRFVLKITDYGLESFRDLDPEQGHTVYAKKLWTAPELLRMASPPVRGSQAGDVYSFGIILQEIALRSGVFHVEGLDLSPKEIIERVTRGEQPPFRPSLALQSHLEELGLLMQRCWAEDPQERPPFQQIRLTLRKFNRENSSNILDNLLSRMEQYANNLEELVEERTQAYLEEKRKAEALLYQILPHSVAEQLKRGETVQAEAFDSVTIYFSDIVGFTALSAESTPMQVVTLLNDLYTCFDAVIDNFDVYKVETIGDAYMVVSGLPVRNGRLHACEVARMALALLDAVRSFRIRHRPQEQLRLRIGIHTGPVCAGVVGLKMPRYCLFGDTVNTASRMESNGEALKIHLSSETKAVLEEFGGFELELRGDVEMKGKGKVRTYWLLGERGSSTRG
# T1 sequence (P01160 124-151 partner limits assumed): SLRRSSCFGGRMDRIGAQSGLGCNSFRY
# Experiment: cGMP production by HTRF in HEK293 cells overexpressing pGC-A, with ANP
# Format: cell-based
# Conditions: for Emax: HEK293, HEK293 cells overexpressing pGC-A, read-out: Max efficacy; for Emax / Max efficacy: cGMP normalized to maximal amount produced by an EC80 concentration of ANP; for Max efficacy / EC50: HEK293 cells overexpressing pGC-A; for EC50: test compound plus EC20 concentration of ANP, cGMP by HTRF
# Source text: Assay: Generally, the assay monitors the production of cGMP, the second messenger generated by pGC-A, by Time-Resolved Florescence (HTRF) in HEK293 cells overexpressing the pGC-A. pGC-A suspension cells were stimulated in the presence of the test compound and an EC20 concentration of ANP. The quantity of cGMP was detected by competitive immunoassay using Eu^3+ cryptate-labeled anti-cGMP and d2-labeled cGMP and normalized to maximal amount produced by an EC80 concentration of ANP. Compound EC50 values were determined in the primary assay, in the presence or absence of ANP, to determine mode of action as positive modulators and tested for selectivity in the same assay platform but in HEK cells overexpressing the particulate guanylyl cyclase B receptor (pGC-B), of which CNP is the endogenous ligand.
# Assay details: 20 nL of 10 μM test compound in DMSO was added to columns 5-48 of 1536 well white high base screening plates (Corning, New York, NY) cells using 550 ECHO acoustic dispenser (Labcyte, San Jose, CA). Alpha-atrial natriuretic peptide (ANP) (Phoenix Pharmaceutics) was prepared as stock aliquots at 5 μM in PBS with 0.1% BSA. An approximate […] concentration of ANP ([…]) in assay buffer (HBSS containing 5 mM HEPES and 0.05% BSA) was added to columns 3-48 at a volume of 1 μL. Assay buffer only was added to column 1 and assay buffer containing a saturating concentration of ANP (5 nM) was added to column 2. HEK293 cells overexpressing GC-A were resuspended in assay media (OptimMem media containing 2% Heat-inactivated Fetal bovine serum and L-glutamine) at a density of 6×10^5 cells/mL and 2 μL were plated in screening plates (1200 cells/well) in suspension using a Bioraptr 2. Plates were spun at 1000 rpm for 1 min and incubated for 30 min at room temperature. 1.5 μL d2-labeled cGMP followed by 1.5 μL Eu^3+ cryptate-labeled anti-cGMP cGMP detection kit (CiBio; #62GM2PEC) prepared according to manufacturer's protocol were added to all wells using a Bioraptr 2 and TR-FRET signal was detected on an EnVision detector (PerkinElmer). Wells treated with 0.3% DMSO only serve as blank controls (column 1); wells treated with 0.3% DMSO and 5 nM ANP (columns 2) serve as positive controls and wells treated with 0.3% DMSO and […] ANP (columns 3-4) serve as negative controls.
Emax [%],Max efficacy,EC50,Structure (SMILES)
94,–,120 nM,CC1C(N2CCCC(C(=O)Nc3nc4c(Cl)cc(F)cc4s3)C2)CN1C (stereo not shown) [compound 130]
81,–,130 nM,CC1NCC1N1CCCC(C(=O)Nc2nc3c(Cl)cc(F)cc3s2)C1 (stereo not shown) [compound 131]
85,–,110 nM,CCN1CC(N2CCCC(C(=O)Nc3nc4c(Cl)cc(F)cc4s3)C2)C1 (stereo not shown) [compound 135]
46,–,300 nM,O=C(Nc1nc2c(Cl)cc(F)cc2s1)C1CCCN(C2CNC2)C1 (stereo not shown) [compound 136]
80,–,80 nM,CCC(C)N1CC(N2CCCC(C(=O)Nc3nc4c(Cl)cc(F)cc4s3)C2)C1 (stereo not shown) [compound 137]
46,–,1100 nM,CC(=O)N1CC(N2CCCC(C(=O)Nc3nc4c(Cl)cc(F)cc4s3)C2)C1 (stereo not shown) [compound 138]
79,–,200 nM,COC(=O)CN1CC(N2CCCC(C(=O)Nc3nc4c(Cl)cc(F)cc4s3)C2)C1 (stereo not shown) [compound 139]
–,–,> 5000 nM,CN(C)CCN1CCCC(C(=O)Nc2nc(-c3ccccc3)cs2)C1 (stereo not shown) [compound 144]
–,–,> 5000 nM,CN(C)CCN1CCCC(C(=O)Nc2nc(-c3ccccc3F)cs2)C1 (stereo not shown) [compound 145]
–,–,> 5000 nM,CN(C)CCN1CCCC(C(=O)Nc2nc(-c3cccc(F)c3)cs2)C1 (stereo not shown) [compound 146]
–,–,> 5000 nM,CN(C)CCN1CCCC(C(=O)Nc2nc(-c3ccc(F)cc3)cs2)C1 (stereo not shown) [compound 147]
–,–,> 5000 nM,CN(C)CCN1CCCC(C(=O)Nc2nc(-c3ccccc3Cl)cs2)C1 (stereo not shown) [compound 148]
–,–,> 5000 nM,CN(C)CCN1CCCC(C(=O)Nc2nc(-c3cccc(Cl)c3)cs2)C1 (stereo not shown) [compound 149]
–,–,> 5000 nM,CN(C)CCN1CCCC(C(=O)Nc2nc(-c3ccc(Cl)cc3)cs2)C1 (stereo not shown) [compound 150]
–,–,> 5000 nM,Cc1ccccc1-c1csc(NC(=O)C2CCCN(CCN(C)C)C2)n1 (stereo not shown) [compound 151]
–,–,> 5000 nM,Cc1cccc(-c2csc(NC(=O)C3CCCN(CCN(C)C)C3)n2)c1 (stereo not shown) [compound 152]
–,–,> 5000 nM,Cc1ccc(-c2csc(NC(=O)C3CCCN(CCN(C)C)C3)n2)cc1 (stereo not shown) [compound 153]
–,–,> 5000 nM,COc1ccccc1-c1csc(NC(=O)C2CCCN(CCN(C)C)C2)n1 (stereo not shown) [compound 154]
–,–,> 5000 nM,COc1cccc(-c2csc(NC(=O)C3CCCN(CCN(C)C)C3)n2)c1 (stereo not shown) [compound 155]
–,–,> 5000 nM,COc1ccc(-c2csc(NC(=O)C3CCCN(CCN(C)C)C3)n2)cc1 (stereo not shown) [compound 156]
–,–,> 5000 nM,COCCOc1ccc(-c2csc(NC(=O)C3CCCN(CCN(C)C)C3)n2)cc1 (stereo not shown) [compound 160]

# Further lines, the compound ahead of its results:
Structure (SMILES),Emax [%],Max efficacy,EC50
Cn1cc(N2CCCC(C(=O)Nc3nc4c(F)cc(F)cc4s3)C2)cn1 (stereo not shown) [compound 078],86,81%,4900 nM and 2100 nM
O=C(Nc1nc2c(F)cc(F)cc2s1)C1CCCN(c2ccccn2)C1 (stereo not shown) [compound 079],–,–,> 5000 nM
O=C(Nc1nc2c(F)cc(F)cc2s1)C1CCCN(c2cccnc2)C1 (stereo not shown) [compound 080],–,135% and 104%,7400 nM and 2500 nM
O=C(Nc1nc2c(F)cc(F)cc2s1)C1CCCN(c2ccncc2)C1 (stereo not shown) [compound 081],87,"87, 87, 87%",100 nM and 70 nM and 300 nM
CN1CC(N2CCCC(C(=O)Nc3nc4c(F)cc(F)cc4s3)C2)C1 (stereo not shown) [compound 084],83,67%,70 nM and 20 nM
O=C(Nc1nc2c(F)cc(F)cc2s1)C1CCCN(C2CNC2)C1 (stereo not shown) [compound 085],89,84%,80 nM and 200 nM
CN1CCC(N2CCCC(C(=O)Nc3nc4c(F)cc(F)cc4s3)C2)C1 (stereo not shown) [compound 090],85,69%,160 nM and 70 nM
O=C(Nc1nc2c(F)cc(F)cc2s1)C1CCCN(C2CCNC2)C1 (stereo not shown) [compound 091],72,–,1300 nM
C=CCN1CCC(N2CCCC(C(=O)Nc3nc4c(F)cc(F)cc4s3)C2)C1 (stereo not shown) [compound 092],89,–,50 nM
COCCN1CCC(N2CCCC(C(=O)Nc3nc4c(F)cc(F)cc4s3)C2)C1 (stereo not shown) [compound 093],86,–,90 nM
COC(=O)CN1CCC(N2CCCC(C(=O)Nc3nc4c(F)cc(F)cc4s3)C2)C1 (stereo not shown) [compound 094],93,–,1000 nM
O=C(O)CN1CCC(N2CCCC(C(=O)Nc3nc4c(F)cc(F)cc4s3)C2)C1 (stereo not shown) [compound 095],–,–,> 5000 nM
CN1CCC(N2CCCC(C(=O)Nc3nc4c(F)cc(F)cc4s3)C2)C1=O (stereo not shown) [compound 097],89,–,700 nM
O=C(Nc1nc2c(F)cc(F)cc2s1)C1CCCN(C2CCCC2)C1 (stereo not shown) [compound 099],91,–,600 nM
CN1CCC(N2CCCC(C(=O)Nc3nc4c(Br)cccc4s3)C2)C1 (stereo not shown) [compound 100],84,–,250 nM
O=C(Nc1nc2c(Br)cccc2s1)C1CCCN(C2CCNC2)C1 (stereo not shown) [compound 101],84,–,500 nM
CN1CC(N2CCCC(C(=O)Nc3nc4c(Cl)cc(F)cc4s3)C2)C1 (stereo not shown) [compound 103],82,–,280 nM
O=C(Nc1nc2c(Cl)cc(F)cc2s1)C1CCCN(c2ccncc2)C1 (stereo not shown) [compound 104],70,–,280 nM
Cc1cc(N2CCCC(C(=O)Nc3nc4c(F)cc(F)cc4s3)C2)ccn1 (stereo not shown) [compound 105],87,–,90 nM
O=C(Nc1nc2c(F)cc(F)cc2s1)C1CCCN(c2ccnc(F)c2)C1 (stereo not shown) [compound 106],101,–,3500 nM
COc1cc(N2CCCC(C(=O)Nc3nc4c(F)cc(F)cc4s3)C2)ccn1 (stereo not shown) [compound 107],101,–,2100 nM
Nc1cc(N2CCCC(C(=O)Nc3nc4c(F)cc(F)cc4s3)C2)ccn1 (stereo not shown) [compound 108],88,–,600 nM
O=C(Nc1nc2c(F)cc(F)cc2s1)C1CCCN(c2ccncn2)C1 (stereo not shown) [compound 109],82,74%,200 nM and 1080 nM
O=C(Nc1nc2c(F)cc(F)cc2s1)C1CCCN(Cc2ccncc2)C1 (stereo not shown) [compound 110],95,78%,460 nM and 1100 nM
Cc1cncnc1N1CCCC(C(=O)Nc2nc3c(F)cc(F)cc3s2)C1 (stereo not shown) [compound 111],65,–,400 nM
O=C(Nc1nc2c(F)cc(F)cc2s1)C1CCCN(c2ccncc2F)C1 (stereo not shown) [compound 112],97,–,–
O=C(Nc1nc2c(F)cc(F)cc2s1)C1CCCN(c2ccncc2Br)C1 (stereo not shown) [compound 113],–,–,> 5000 nM
O=C(Nc1nc2c(Cl)cc(F)cc2s1)C1CCCN(c2ccnc3ccccc23)C1 (stereo not shown) [compound 114],–,–,> 5000 nM
O=C(Nc1nc2c(Cl)cc(F)cc2s1)C1CCCN(c2ccnnc2)C1 (stereo not shown) [compound 115],56,–,100 nM
